Legend:
Type in all cases: in vivo
foxtails (Setaria spp.) = assay: Test B: overall spray in carrot field after weed emergence, percent control of foxtails; conditions: six weeks after treatment, 0.1% Tween 20
Excerpt: (§1) Test B involved a field sown to carrots and in which the following weed species emerged naturally: crabgrass (Digitaria sanquinalis), foxtails (Setaria spp.), barnyardgrass (Echinochloa crusgalli), pigweed (Amaranthus spp.), ragweed (Ambrosia artemisiifolia), velvetleaf (Abutilon theophrasti), smartweed (Polygonum spp.) and lambsquarters (Chenopodium album). Sixteen days after sowing, when all species of weeds had emerged, the plants were sprayed overall with a 50% wettable powder formulation of 2-(4-chloro-2-fluorophenyl)4,5,6,7-tetrahydro-2H-isoindole-1,3dione (Treatment I) in the form of an aqueous suspension, at rates of 0.5, 1.0, 2.0 and 4.0 kg/ha, and with 2-(4-chlorophenyl)-4,5,6,7-tetrahydro-2H-isoindole-1,3-dione (Treatment II) in the same form and at the same rates. The spray volume was 425 l/ha. The surfactant Tween 20* was added to all treatments in a concentration of 0.1% by weight. Six weeks after treatment, visual observations were made of percent weed control obtained and, for carrots, crop response.
(§2) *Tween 20 -- A trademark of ICI of America which is the reaction product of sorbitan monolaurate with an average of 20 moles of ethylene oxide.

[1] = tested on: barnyardgrass (Echinochloa crusgalli); assay: Test B: overall spray in carrot field after weed emergence, percent control of barnyardgrass; conditions: six weeks after treatment, 0.1% Tween 20
Excerpt: as §1, §2

[2] = tested on: ragweed (Ambrosia artemisiifolia); assay: Test B: overall spray in carrot field after weed emergence, percent control of ragweed; conditions: six weeks after treatment, 0.1% Tween 20
Excerpt: as §1, §2

[3] = tested on: velvetleaf (Abutilon theophrasti); assay: Test B: overall spray in carrot field after weed emergence, percent control of velvetleaf; conditions: six weeks after treatment, 0.1% Tween 20
Excerpt: as §1, §2

[4] = tested on: smartweed (Polygonum spp.); assay: Test B: overall spray in carrot field after weed emergence, percent control of smartweed; conditions: six weeks after treatment, 0.1% Tween 20
Excerpt: as §1, §2

[5] = tested on: crabgrass (Digitaria sanquinalis); assay: Test C: preemergence weed control in rice, crabgrass; conditions: 29 days after treatment
Excerpt: (§3) In test A, soybeans, peanuts, lima beans, green beans and squash were planted in a field infested with the following weed seeds: crabgrass (Digitaria sanquinalis), foxtails (Setaria spp.), barnyardgrass (Echinochloa crusgalli), pigweed (Amaranthus spp.), ragweed (Ambrosia artemisiifolia), velvetleaf (Abutilon theophrasti), purslane (Portulaca oleracea) and flower-of-an-hour (Hibiscus trionum). A 50% wettable powder formulation of 2-(4-chloro-2-fluorophenyl)-4,5,6,7-tetrahydro-2H-isoindole-1,3-dione was applied in the form of an aqueous suspension at rates of 0.125, 0.25, 0.5 and 1.0 kg/ha, each treatment replicated twice. The plots were rated for percent weed control and crop response seven weeks after treatment. Crop response was expressed on a scale of 0 = no injury to 10 = complete kill.
(§4) Test C concerned preemergence weed control in rice. The field selected contained seeds of the following weed species: crabgrass (Digitaria sanquinalis), foxtail (Setaria spp.), barnyardgrass (Echinochloa crusgalli), pigweed (Amaranthus spp.), ragweed (Ambrosia artemisiifolia), velvetleaf (Abutilon theophrasti), purslane (Portulaca oleracea) and flower-of-an-hour (Hibiscus trionum). Two varieties of rice, CSM-3 and Nato, were planted at depths of both 1 and 2 cm. In addition, rice seedlings of both varieties were transplanted into the field to be treated. Immediately thereafter, the plot was treated with an aqueous suspension of 2-(4-chloro-2-fluorophenyl)-4,5,6,7-tetrahydro-2H-isoindole-1,3-dione (Treatment I) at rates of 0.125 and 0.25 kg/ha, and an aqueous suspension of 2-(4-chlorophenyl)-4,5,6,7-tetrahydro-2H-isoindole-1,3dione (Treatment II) at rates of 0.25, 0.50, 1.00 and 2.00 kg/ha. The test chemicals had been formulated as 50% wettable powders. Overall spray volume was 540 l/ha. Ratings of percent weed control obtained and crop response were made 29 days after treatment, as described for test A. The ratings are summarized in the following Table III.

foxtail (Setaria spp.) = assay: Test C: preemergence weed control in rice, foxtail; conditions: 29 days after treatment
Excerpt: as §3, §4

[6] = tested on: barnyardgrass (Echinochloa crusgalli); assay: Test C: preemergence weed control in rice, barnyardgrass; conditions: 29 days after treatment
Excerpt: as §3, §4

[7] = tested on: pigweed (Amaranthus spp.); assay: Test C: preemergence weed control in rice, pigweed; conditions: 29 days after treatment
Excerpt: as §3, §4

[8] = tested on: ragweed (Ambrosia artemisiifolia); assay: Test C: preemergence weed control in rice, ragweed; conditions: 29 days after treatment
Excerpt: as §3, §4

[9] = tested on: velvetleaf (Abutilon theophrasti); assay: Test C: preemergence weed control in rice, velvetleaf; conditions: 29 days after treatment
Excerpt: as §3, §4

[10] = tested on: purslane (Portulaca oleracea); assay: Test C: preemergence weed control in rice, purslane; conditions: 29 days after treatment
Excerpt: as §3, §4

rice, variety CSM-3 = assay: Test C: crop response of rice CSM-3; conditions: 29 days, 0 = no injury to 10 = complete kill; for Crop Response, Rice CSM-3, 1 cm: planting depth 1 cm; for Crop Response, Rice CSM-3, 2 cm: planting depth 2 cm; for Crop Response, Rice CSM-3, T: transplanted
Excerpt: as §3, with “A 50% wettable powder formulation of 2-(4-chloro-2-fluorophenyl)-4,5,6,7-tetrahydro-2H-isoindole-1,3-dione was applied in the form of an aqueous suspension at rates of 0.125, 0.25, 0.5 and 1.0 kg/ha, each treatment replicated twice.” left out
Test C concerned preemergence weed control in rice. The field selected contained seeds of the following weed species: crabgrass (Digitaria sanquinalis), foxtail (Setaria spp.), barnyardgrass (Echinochloa crusgalli), pigweed (Amaranthus spp.), ragweed (Ambrosia artemisiifolia), velvetleaf (Abutilon theophrasti), purslane (Portulaca oleracea) and flower-of-an-hour (Hibiscus trionum). Two varieties of rice, CSM-3 and Nato, were planted at depths of both 1 and 2 cm. In addition, rice seedlings of both varieties were transplanted into the field to be treated. […] The test chemicals had been formulated as 50% wettable powders. Overall spray volume was 540 l/ha.

O=C1C2=C(CCCC2)C(=O)N1c1ccc(Cl)cc1 [Treatment II, 2-(4-chlorophenyl)-4,5,6,7-tetrahydro-2H-isoindole-1,3-dione]
% Control, Foxtails (foxtails (Setaria spp.); 0.5 kg/ha): 0% | % Control, Foxtails (foxtails (Setaria spp.); 1.0 kg/ha): 20% | % Control, Foxtails (foxtails (Setaria spp.); 2.0 kg/ha): 40% | % Control, Foxtails (foxtails (Setaria spp.); 4.0 kg/ha): 40% | % Control, Barnyardgrass ([1]; 0.5 kg/ha): 0% | % Control, Barnyardgrass ([1]; 1.0 kg/ha): 20% | % Control, Barnyardgrass ([1]; 2.0 kg/ha): 40% | % Control, Barnyardgrass ([1]; 4.0 kg/ha): 50% | % Control, Ragweed ([2]; 0.5 kg/ha): 50% | % Control, Ragweed ([2]; 1.0 kg/ha): 70% | % Control, Ragweed ([2]; 2.0 kg/ha): 90% | % Control, Ragweed ([2]; 4.0 kg/ha): > 99% | % Control, Velvetleaf ([3]; 0.5 kg/ha): 70% | % Control, Velvetleaf ([3]; 1.0 kg/ha): 80% | % Control, Velvetleaf ([3]; 2.0 kg/ha): 100% | % Control, Velvetleaf ([3]; 4.0 kg/ha): 100% | % Control, Smartweed ([4]; 0.5 kg/ha): 70% | % Control, Smartweed ([4]; 1.0 kg/ha): 80% | % Control, Smartweed ([4]; 2.0 kg/ha): 80% | % Control, Smartweed ([4]; 4.0 kg/ha): 99% | % Control, Crabgrass ([5]; 0.25 kg/ha): 99% | % Control, Crabgrass ([5]; 0.50 kg/ha): 100% | % Control, Crabgrass ([5]; 1.0 kg/ha): 100% | % Control, Crabgrass ([5]; 2.0 kg/ha): 100% | % Control, Foxtail (foxtail (Setaria spp.); 0.25 kg/ha): 99% | % Control, Foxtail (foxtail (Setaria spp.); 0.50 kg/ha): 100% | % Control, Foxtail (foxtail (Setaria spp.); 1.0 kg/ha): 100% | % Control, Foxtail (foxtail (Setaria spp.); 2.0 kg/ha): 100% | % Control, Barnyardgrass ([6]; 0.25 kg/ha): 58% | % Control, Barnyardgrass ([6]; 0.50 kg/ha): 97% | % Control, Barnyardgrass ([6]; 1.0 kg/ha): 99% | % Control, Barnyardgrass ([6]; 2.0 kg/ha): 100% | % Control, Pigweed ([7]; 0.25 kg/ha): 100% | % Control, Pigweed ([7]; 0.50 kg/ha): 100% | % Control, Pigweed ([7]; 1.0 kg/ha): 100% | % Control, Pigweed ([7]; 2.0 kg/ha): 100% | % Control, Ragweed ([8]; 0.25 kg/ha): 100% | % Control, Ragweed ([8]; 0.50 kg/ha): 100% | % Control, Ragweed ([8]; 1.0 kg/ha): 100% | % Control, Ragweed ([8]; 2.0 kg/ha): 100% | % Control, Velvetleaf ([9]; 0.25 kg/ha): 100% | % Control, Velvetleaf ([9]; 0.50 kg/ha): 100% | % Control, Velvetleaf ([9]; 1.0 kg/ha): 100% | % Control, Velvetleaf ([9]; 2.0 kg/ha): 100% | % Control, Purslane ([10]; 0.25 kg/ha): 100% | % Control, Purslane ([10]; 0.50 kg/ha): 100% | % Control, Purslane ([10]; 1.0 kg/ha): 100% | % Control, Purslane ([10]; 2.0 kg/ha): 100% | Crop Response, Rice CSM-3, 1 cm (rice, variety CSM-3; 0.25 kg/ha): 4 | Crop Response, Rice CSM-3, 2 cm (rice, variety CSM-3; 0.25 kg/ha): 1 | Crop Response, Rice CSM-3, T (rice, variety CSM-3; 0.25 kg/ha): 0 | Crop Response, Rice CSM-3, 1 cm (rice, variety CSM-3; 0.50 kg/ha): 5 | Crop Response, Rice CSM-3, 2 cm (rice, variety CSM-3; 0.50 kg/ha): 2 | Crop Response, Rice CSM-3, T (rice, variety CSM-3; 0.50 kg/ha): 0 | Crop Response, Rice CSM-3, 1 cm (rice, variety CSM-3; 1.0 kg/ha): 7 | Crop Response, Rice CSM-3, 2 cm (rice, variety CSM-3; 1.0 kg/ha): 4 | Crop Response, Rice CSM-3, T (rice, variety CSM-3; 1.0 kg/ha): 0 | Crop Response, Rice CSM-3, 1 cm (rice, variety CSM-3; 2.0 kg/ha): 10 | Crop Response, Rice CSM-3, 2 cm (rice, variety CSM-3; 2.0 kg/ha): 7 | Crop Response, Rice CSM-3, T (rice, variety CSM-3; 2.0 kg/ha): 1

O=C1C2=C(CCCC2)C(=O)N1c1ccc(Cl)cc1F [Treatment I, 2-(4-chloro-2-fluorophenyl)-4,5,6,7-tetrahydro-2H-isoindole-1,3-dione]
% Control, Foxtails (foxtails (Setaria spp.); 0.5 kg/ha): 70% | % Control, Foxtails (foxtails (Setaria spp.); 1.0 kg/ha): 90% | % Control, Foxtails (foxtails (Setaria spp.); 2.0 kg/ha): 94% | % Control, Foxtails (foxtails (Setaria spp.); 4.0 kg/ha): > 99% | % Control, Barnyardgrass ([1]; 0.5 kg/ha): 65% | % Control, Barnyardgrass ([1]; 1.0 kg/ha): 90% | % Control, Barnyardgrass ([1]; 2.0 kg/ha): 94% | % Control, Barnyardgrass ([1]; 4.0 kg/ha): > 99% | % Control, Ragweed ([2]; 0.5 kg/ha): 98% | % Control, Ragweed ([2]; 1.0 kg/ha): > 99% | % Control, Ragweed ([2]; 2.0 kg/ha): 100% | % Control, Ragweed ([2]; 4.0 kg/ha): 100% | % Control, Velvetleaf ([3]; 0.5 kg/ha): 100% | % Control, Velvetleaf ([3]; 1.0 kg/ha): 100% | % Control, Velvetleaf ([3]; 2.0 kg/ha): 100% | % Control, Velvetleaf ([3]; 4.0 kg/ha): 100% | % Control, Smartweed ([4]; 0.5 kg/ha): > 99% | % Control, Smartweed ([4]; 1.0 kg/ha): 100% | % Control, Smartweed ([4]; 2.0 kg/ha): 100% | % Control, Smartweed ([4]; 4.0 kg/ha): 100% | % Control, Crabgrass ([5]; 0.125 kg/ha): 96% | % Control, Crabgrass ([5]; 0.25 kg/ha): 100% | % Control, Foxtail (foxtail (Setaria spp.); 0.125 kg/ha): 96% | % Control, Foxtail (foxtail (Setaria spp.); 0.25 kg/ha): 100% | % Control, Barnyardgrass ([6]; 0.125 kg/ha): 90% | % Control, Barnyardgrass ([6]; 0.25 kg/ha): 99% | % Control, Pigweed ([7]; 0.125 kg/ha): 99% | % Control, Pigweed ([7]; 0.25 kg/ha): 100% | % Control, Ragweed ([8]; 0.125 kg/ha): 100% | % Control, Ragweed ([8]; 0.25 kg/ha): 100% | % Control, Velvetleaf ([9]; 0.125 kg/ha): 100% | % Control, Velvetleaf ([9]; 0.25 kg/ha): 100% | % Control, Purslane ([10]; 0.125 kg/ha): 100% | % Control, Purslane ([10]; 0.25 kg/ha): 100% | Crop Response, Rice CSM-3, 1 cm (rice, variety CSM-3; 0.125 kg/ha): 3 | Crop Response, Rice CSM-3, 2 cm (rice, variety CSM-3; 0.125 kg/ha): 0 | Crop Response, Rice CSM-3, T (rice, variety CSM-3; 0.125 kg/ha): 0 | Crop Response, Rice CSM-3, 1 cm (rice, variety CSM-3; 0.25 kg/ha): 5 | Crop Response, Rice CSM-3, 2 cm (rice, variety CSM-3; 0.25 kg/ha): 1 | Crop Response, Rice CSM-3, T (rice, variety CSM-3; 0.25 kg/ha): 0

— patent US4001272A, “Herbicidal 2-fluoro-4-halo-phenyl-4,5,6,7-tetrahydro-2H-isoindole-1,3-diones” (E. I. Du Pont de Nemours and Company, priority 1974, dated 1977)
